In brackets after ≈: the same amount, converted by molar mass.
Experiments:
[1] = system: normal human endothelial cells; conditions: cited from earlier work
[2] = system: human lung cancer tumour xenograft; conditions: cited from earlier work
human tumour cells = conditions: nude mice transplanted with human tumour cells, also paclitaxel-resistant tumour cells; cited from earlier work
[3] = system: human lung and breast cancer cell lines; conditions: cited from earlier work
Solubility in water = format: physicochemical
Description: The solubility in water of compounds of the present invention was determined by shaking the compounds in water for one hour at room temperature followed by filtration and determination of the concentration of the compound in the filtrate by HPLC. […]

N#CNC(=Nc1ccncc1)NCCCCCCOc1ccc(Cl)cc1 [N-(6-(4-chlorophenoxy)-hexyl)-N′-cyano-N″-(4-pyridyl)-guanidine]
antiproliferative activity on normal human endothelial cells [1]: considerably less antiproliferative activity | antitumour activity in the nude mouse model [2]: potent antitumour activity | antitumour activity in vivo (human tumour cells): substantial antitumour activity | antiproliferative activity in vitro [3]: high antiproliferative activity | solubility at 1 h (Solubility in water; thermodynamic from solid, shaken in water for one hour at room temperature, filtration, filtrate by HPLC): 0.0002 mg/mL (≈ 0.538 µM) | solubility (in words) (Solubility in water; water): for all practical purposes insoluble

COCCOCCOCCOCC(=O)OC[n+]1ccc(NC(=NC#N)NCCCCCCOc2ccc(Cl)cc2)cc1.[Cl-] [Example 8, 1-[2-(2-(2-Methoxyethoxy)-ethoxy)-ethoxy-acetoxymethyl]-4-[N′-cyano-N″-(6-(4-chlorophenoxy)-hexyl)-N-guanidino]-pyridinium chloride]
Solubility in water (Solubility in water): >50 mg/mL

COCCOCCOCCOCCOC(=O)OC[n+]1ccc(NC(=NC#N)NCCCCCCOc2ccc(Cl)cc2)cc1.[Cl-] [Example 9, 1-[2-(2-(2-(2-Methoxyethoxy)-ethoxy)-ethoxy)-ethoxy-carbonyloxymethyl]-4-[N′-cyano-N″-(6-(4-chlorophenoxy)-hexyl)-N-guanidino]-pyridinium chloride]
Solubility in water (Solubility in water): >50 mg/mL

— patent US6525077B2, “Cyanoguanidine prodrugs” (Leo Pharmaceutical Products Ltd. A/S, priority 2000, dated 2003)
